From patent publication US20090203671A1, “METHOD OF TREATING CANCER” (ABBOTT LABORATORIES, priority 2007, published 2009)

Assays:
[1] = test system: D54MG glioblastoma multiforme cell line; experiment: Cell proliferation assay (CellTiter-Glo), Aurora inhibitor combined with TRAIL; type: cell-based; settings: Aurora inhibitor at 1 μM combined with TRAIL, 72 h, FIG. 1
Method: Cells were seeded into 96-well plates at 2,500 cells per well and allowed to adhere overnight. Compounds and TRAIL were added the following day, and cells were incubated at 37° C. for 72 h. […] Percent inhibition of viability was determined relative to cells treated with DMSO alone (0.1%). Data are representative of at least three independent experiments with each data point carried out in triplicate.

[2] = test system: glioma cell lines where DR5 was induced; experiment: TRAIL-mediated apoptosis in glioma cell lines after polyploidization; type: cell-based; settings: glioma cell lines where DR5 was induced following polyploidization
Method: To identify candidate apoptosis-sensitizing genes that could be exploited in combination with Aurora kinase inhibitors in malignant glioma, global gene expression analysis in a D54MG glioma cell derivative treated with three Aurora kinases inhibitors chosen for their distinctive selectivities was carried out: MLN8054 (4-((9-chloro-7-(2,6-difluorophenyl)-5H-pyrimidol[5,4-d][2]benzazepin-2-yl)amino)benzoic acid, Aurora-A-selective), AZD1152-HQPA (Aurora-B-selective), and VX-680 (Aurora-A/B). This analysis identified the TRAIL death receptor, DR5, as an apoptosis sensitizing gene induced selectively following inhibition of Aurora-B kinase cancer cells. In glioma cell lines where DR5 was induced following polyploidization, the sensitivity, kinetics, and magnitude of TRAIL-mediated apoptosis were enhanced.

| Molecule | anti-proliferative effect of combination with TRAIL [1] | sensitivity, kinetics, and magnitude of TRAIL-mediated apoptosis [2] |
| --- | --- | --- |
| CCN(CCO)CCCOc1ccc2c(Nc3cc(CC(=O)Nc4cccc(F)c4)[nH]n3)ncnc2c1 [AZD 1152-HQPA] | synergistic anti-proliferative effects | – |
| O=C(O)c1ccc(Nc2ncc3c(n2)-c2ccc(Cl)cc2C(c2c(F)cccc2F)=NC3)cc1 [MLN-8054, 4-((9-chloro-7-(2,6-difluorophenyl)-5H-pyrimidol[5,4-d][2]benzazepin-2-yl)amino)benzoic acid] | synergistic anti-proliferative effects | – |
| Cc1cc(Nc2cc(N3CCN(C)CC3)nc(Sc3ccc(NC(=O)C4CC4)cc3)n2)n[nH]1 [VX-680/MK0457] | synergistic anti-proliferative effects | – |
| TRAIL: tumor necrosis factor (TNF)-related apoptosis inducing ligand; binds death receptors DR4 and DR5 (protein, UniProt P50591 1-281, looked up) Tumor necrosis factor ligand …: MAMMEVQGGPSLGQTCVLIVIFTVLLQSLCVAVTYVYFTNELKQMQDKYSKSGIACFLKEDDSYWDPNDEESMNSPCWQVKWQLRQLVRKMILRTSEETISTVQEKQQNISPLVRERGPQRVAAHITGTRGRSNTLSSPNSKNEKALGRKINSWESSRSGHSFLSNLHLRNGELVIHEKGFYYIYSQTYFRFQEEIKENTKNDKQMVQYIYKYTSYPDPILLMKSARNSCWSKDAEYGLYSIYQGGIFELKENDRIFVSVTNEHLIDMDHEASFFGAFLVG | – | enhanced |
